Tests used:
[1] = target: Mu-type opioid receptor (Rattus norvegicus, UniProt P33535)
[2] = target: Kappa-type opioid receptor (Rattus norvegicus, UniProt P34975)
[3] = target: Delta-type opioid receptor (Rattus norvegicus, UniProt P33533)
Sequence of Delta-type opioid receptor (P33533 whole entry): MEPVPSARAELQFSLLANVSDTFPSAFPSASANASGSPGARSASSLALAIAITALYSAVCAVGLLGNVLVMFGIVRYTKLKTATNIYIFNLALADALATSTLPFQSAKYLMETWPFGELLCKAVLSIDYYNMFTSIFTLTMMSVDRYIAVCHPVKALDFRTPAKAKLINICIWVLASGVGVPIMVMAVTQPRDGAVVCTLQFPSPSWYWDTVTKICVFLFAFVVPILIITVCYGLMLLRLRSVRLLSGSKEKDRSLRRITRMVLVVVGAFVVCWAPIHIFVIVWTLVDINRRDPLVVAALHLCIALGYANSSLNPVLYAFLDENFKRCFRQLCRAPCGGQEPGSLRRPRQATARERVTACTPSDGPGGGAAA

Sequence of Mu-type opioid receptor (P33535 whole entry): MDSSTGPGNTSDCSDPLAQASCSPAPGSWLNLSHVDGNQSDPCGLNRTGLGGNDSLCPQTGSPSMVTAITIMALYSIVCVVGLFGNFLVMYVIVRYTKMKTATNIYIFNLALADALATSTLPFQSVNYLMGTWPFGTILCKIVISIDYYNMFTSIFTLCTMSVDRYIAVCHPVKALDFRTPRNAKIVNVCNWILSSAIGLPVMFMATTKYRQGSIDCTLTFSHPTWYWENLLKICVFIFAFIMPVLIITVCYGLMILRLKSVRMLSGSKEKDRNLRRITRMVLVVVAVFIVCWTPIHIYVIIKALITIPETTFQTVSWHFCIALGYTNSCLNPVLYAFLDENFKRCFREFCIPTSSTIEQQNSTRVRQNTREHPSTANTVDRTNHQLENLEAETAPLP
Sequence of Kappa-type opioid receptor (P34975 whole entry): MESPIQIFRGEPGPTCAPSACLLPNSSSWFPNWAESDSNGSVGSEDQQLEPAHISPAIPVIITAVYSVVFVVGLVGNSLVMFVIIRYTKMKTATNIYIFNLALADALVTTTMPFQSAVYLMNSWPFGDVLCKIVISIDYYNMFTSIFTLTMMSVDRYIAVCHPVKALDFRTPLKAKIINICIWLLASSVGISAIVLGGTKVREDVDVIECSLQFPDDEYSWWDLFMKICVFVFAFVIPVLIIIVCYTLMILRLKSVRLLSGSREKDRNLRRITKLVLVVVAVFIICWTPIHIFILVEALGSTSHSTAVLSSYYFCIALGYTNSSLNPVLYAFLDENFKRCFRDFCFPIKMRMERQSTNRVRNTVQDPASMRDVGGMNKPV

| SMILES | Ki [1] [nM] | Ki [2] [nM] | Ki [3] [nM] |
| --- | --- | --- | --- |
| COC12CCC(=O)C3(C)Oc4c(O)ccc5c4C31CCN(C)C2C5 (stereo unspecified) [NSC_125489] | 0.48 | 25.2 |  |
| COc1cccc2c1C13CCN(CC4CC4)C(C2)C1(OC)CCC(=O)C3 (stereo unspecified) [NSC_3081671] | 15.1 |  |  |
| Oc1ccc2c3c1OC1c4[nH]c5c(c4CC4(O)CN(CCC314)C(C1CC1)C2)CC1(O)CN2CCC13c1c(ccc(O)c1OC53)CC2C1CC1 (stereo unspecified) [CAS_105618-26-6] |  | 38.8 |  |
| CCO[C@@]12Cc3c([nH]c4ccccc34)[C@]3(C)Oc4c(O)ccc5c4[C@@]31CCN(CC1CC1)C2C5 [HS-378] |  |  | 528 |
| CC(C)[C@H](NC(=O)[C@H](CCC(=O)O)NC(=O)[C@H](Cc1ccccc1)NC(=O)[C@@H](C)NC(=O)[C@@H](N)Cc1ccc(O)cc1)C(=O)N[C@H](C(=O)NCC(N)=O)C(C)C [Tyr-D-Ala-Phe-Glu-Val-Val-GlyNH2] |  |  | 48.3 |

— BindingDB's records for doi:10.1046/j.1460-9568.2003.02744.x (University of Innsbruck, 2003)
